Experimental data published in US9957230B2, “Synergistic compositions” (Cadila Healthcare Limited, priority 2013, dated 2018).

Test system: Swiss albino mice
Test: Triglyceride lowering effects of various salts in Swiss albino mice
Format: in vivo
Settings: dose equivalent to 1 mg/kg free acid; for Serum triglycerides (mg/dl) Day 0: Day 0 (pretreatment); for Serum triglycerides (mg/dl) Day 0 / Serum triglycerides (mg/dl) Day 6: male Swiss albino mice; for Serum triglycerides (mg/dl) Day 6: Day 6, one hr after dose; for % Change Vs control: serum triglycerides vs vehicle control after 6 days; for % Change Day 6 vs Day 0: serum triglycerides
Description: Comparative Efficacy Study of (Triglyceride Lowering Effects) of Various Salts of Compound (Ia) in Swiss Albino Mice.
The in-vivo efficacy of compound (I) was evaluated in Swiss albino mice. Anti-dyslipidemic drugs have been reported to lower circulating levels of triglyceride in Swiss albino mice through their effect on genes involved in the peroxisomal fatty acid beta oxidation via PPAR alpha agonism. Therefore, this species is preferred for evaluation of their efficacy in lowering circulating triglyceride (TG) levels.
In this experiment, six to eight week old male Swiss albino mice were issued and kept for acclimatization. Near the end of the acclimatization period, animals judged to be suitable for testing were bled under light ether anesthesia and serum samples were analyzed for Serum triglyceride levels.
Test compound was formulated at specified doses in vehicle (10% Polyethylene glycol (PEG) 400+90% of 0.5% Sodium Carboxy methyl cellulose). The animals were dosed orally, once daily in the morning during six days, starting from next day of grouping with vehicle or test compound. The animals were weighed prior to dosing, and based on these weights; the volume of administration was calculated. The volume of formulation administered to each mouse was 10 ml/kg body weight.
On day 6 one hr after the dose administration, blood (0.25 ml) was collected from retro-orbital sinus of the anaesthetized animals. Serum was separated by centrifugation. Serum was analyzed for triglyceride levels. Analysis for serum triglyceride levels was performed using a Spectrophotometer and commercially available kit. Calculations for determination of % change and % reduction in serum TG levels were performed using MS Excels sheet.

[1] = Table 5, oral once daily 6 days
[2] = Table 3, oral once daily 6 days

Molecule: CCO[C@@H](Cc1ccc(OCCn2c(C)ccc2-c2ccc(SC)cc2)cc1)C(=O)O.c1ccc(CCNCc2ccccc2)cc1 [Benethamine salt of Formula (I), (S) 2-Ethoxy-3-(4-{2-[2-methyl-5-(4-methylthiophenyl)-pyrrol-1-yl]-ethoxy}-phenyl)-propionic acid Benethamine salt]
- Serum triglycerides (mg/dl) Day 0 [1]: 91.6 ± 6.4 mg/dL
- Serum triglycerides (mg/dl) Day 6 [1]: 56.0 ± 4.9 mg/dL
- % Change Vs control (Table 5, oral): −41.6 ± 5.4%
- % Change Day 6 vs Day 0 [1]: −38.3 ± 5.7%

Molecule: CCO[C@@H](Cc1ccc(OCCn2c(C)ccc2-c2ccc(SC)cc2)cc1)C(=O)[O-].C[N+](C)(C)CCO [Choline salt of Formula (I), Choline Salt (i.e 2-Hydroxy-N,N,N-trimethylethanaminium hydroxide or choline hydroxide) of (S) 2-Ethoxy-3-(4-{2-[2-methyl-5-(4-methylthiophenyl)-pyrrol-1-ylethoxyphenylpropionic acid]
- Serum triglycerides (mg/dl) Day 0 (Table 7, po once daily 6 days): 110.9 ± 7.7 mg/dL
- Serum triglycerides (mg/dl) Day 6 (Table 7, po once daily 6 days): 47.6 ± 3.4 mg/dL
- % Change Vs control (Table 7, po): −51.0 ± 4.8%
- % Change Day 6 vs Day 0 (Table 7, po once daily 6 days): −56.0 ± 4.3%

Molecule: CCO[C@@H](Cc1ccc(OCCn2c(C)ccc2-c2ccc(SC)cc2)cc1)C(=O)O.OCCN1CCCC1 [Epolamine salt of Formula (I)]
- Serum triglycerides (mg/dl) Day 0 (Table 7, po once daily 6 days): 110.5 ± 7.5 mg/dL
- Serum triglycerides (mg/dl) Day 6 (Table 7, po once daily 6 days): 39.6 ± 3.8 mg/dL
- % Change Vs control (Table 7, po): −60.1 ± 2.6%
- % Change Day 6 vs Day 0 (Table 7, po once daily 6 days): −64.2 ± 2.3%

Molecule: CCO[C@@H](Cc1ccc(OCCn2c(C)ccc2-c2ccc(SC)cc2)cc1)C(=O)O.NCCO [Ethanolamine salt of Formula (I)]
- Serum triglycerides (mg/dl) Day 0 (Table 7, po once daily 6 days): 110.5 ± 7.5 mg/dL
- Serum triglycerides (mg/dl) Day 6 (Table 7, po once daily 6 days): 42.5 ± 3.6 mg/dL
- % Change Vs control (Table 7, po): −56.9 ± 3.6%
- % Change Day 6 vs Day 0 (Table 7, po once daily 6 days): −61.3 ± 3.2%

Molecule: CCO[C@@H](Cc1ccc(OCCn2c(C)ccc2-c2ccc(SC)cc2)cc1)C(=O)O.c1c[nH]cn1 [Imidazole salt of Formula (I), (S) 2-Ethoxy-3-(4-{2-[2-methyl-5-(4-methylthiophenyl)-pyrrol-1-yl]-ethoxy}-phenyl)-propionic acid imidazole salt]
- Serum triglycerides (mg/dl) Day 0 (Table 7, po once daily 6 days): 110.5 ± 7.2 mg/dL
- Serum triglycerides (mg/dl) Day 6 (Table 7, po once daily 6 days): 43.5 ± 2.5 mg/dL
- % Change Vs control (Table 7, po): −55.3 ± 3.6%
- % Change Day 6 vs Day 0 (Table 7, po once daily 6 days): −59.8 ± 3.2%

Molecule: CCO[C@@H](Cc1ccc(OCCn2c(C)ccc2-c2ccc(SC)cc2)cc1)C(=O)[O-].[K+] [Potassium Salt of formula (I), (S) 2-Ethoxy-3-(4-{2-[2-methyl-5-(4-methylthiophenyl)-pyrrol-1-yl]-ethoxy}-phenyl)-propionic acid potassium salt]
- Serum triglycerides (mg/dl) Day 0 [2]: 119.0 ± 9.2 mg/dL
- Serum triglycerides (mg/dl) Day 6 [2]: 44.8 ± 4.6 mg/dL
- % Change Vs control (Table 3, oral): −60.2 ± 6.0%
- % Change Day 6 vs Day 0 [2]: −60.7 ± 6.0%

Molecule: CCO[C@@H](Cc1ccc(OCCn2c(C)ccc2-c2ccc(SC)cc2)cc1)C(=O)[O-].[Na+] [Sodium Salt of Formula (I), (S) 2-Ethoxy-3-(4-{2-[2-methyl-5-(4-methylthiophenyl)-pyrrol-1-yl]-ethoxy}-phenyl)-propionic acid sodium salt]
- Serum triglycerides (mg/dl) Day 0 [2]: 119.4 ± 11.9 mg/dL
- Serum triglycerides (mg/dl) Day 6 [2]: 41.6 ± 1.8 mg/dL
- % Change Vs control (Table 3, oral): −63.1 ± 3.6%
- % Change Day 6 vs Day 0 [2]: −63.5 ± 3.6%

Molecule: CCO[C@@H](Cc1ccc(OCCn2c(C)ccc2-c2ccc(SC)cc2)cc1)C(=O)O.OCCN(CCO)CCO [Triethanolamine salt of Formula (I)]
- Serum triglycerides (mg/dl) Day 0 (Table 7, po once daily 6 days): 110.3 ± 7.5 mg/dL
- Serum triglycerides (mg/dl) Day 6 (Table 7, po once daily 6 days): 33.0 ± 2.6 mg/dL
- % Change Vs control (Table 7, po): −65.3 ± 4.4%
- % Change Day 6 vs Day 0 (Table 7, po once daily 6 days): −68.9 ± 3.9%

Molecule: (S) 2-Ethoxy-3-(4-{2-[2-methyl-5-(4-methylthiophenyl)-pyrrol-1-yl]-ethoxy}-phenyl)-propionic acid Calcium Salt [Calcium Salt of Formula (I)]
- Serum triglycerides (mg/dl) Day 0 [2]: 119.2 ± 11.1 mg/dL
- Serum triglycerides (mg/dl) Day 6 [2]: 38.8 ± 3.2 mg/dL
- % Change Vs control (Table 3, oral): −66.4 ± 2.5%
- % Change Day 6 vs Day 0 [2]: −66.8 ± 2.5%

Molecule: (S) 2-Ethoxy-3-(4-{2-[2-methyl-5-(4-methylthiophenyl)-pyrrol-1-yl]-ethoxy}-phenyl)-propionic acid Dibenzylamine salt [Dibenzylamine salt of Formula (I)]
- Serum triglycerides (mg/dl) Day 0 [1]: 91.0 ± 6.7 mg/dL
- Serum triglycerides (mg/dl) Day 6 [1]: 42.1 ± 2.9 mg/dL
- % Change Vs control (Table 5, oral): −54.4 ± 5.8%
- % Change Day 6 vs Day 0 [1]: −51.8 ± 6.1%

Molecule: (S) 2-Ethoxy-3-(4-{2-[2-methyl-5-(4-methylthiophenyl)-pyrrol-1-yl]-ethoxy}-phenyl)-propionic acid L-Lysine salt [L-lysine salt of Formula (I)]
- Serum triglycerides (mg/dl) Day 0 [1]: 91.2 ± 6.8 mg/dL
- Serum triglycerides (mg/dl) Day 6 [1]: 48.7 ± 3.3 mg/dL
- % Change Vs control (Table 5, oral): −48.7 ± 3.6%
- % Change Day 6 vs Day 0 [1]: −45.8 ± 3.8%

Molecule: (S) 2-Ethoxy-3-(4-{2-[2-methyl-5-(4-methylthiophenyl)-pyrrol-1-yl]-ethoxy}-phenyl)-propionic acid L-arginine salt [L-arginine salt of Formula (I)]
- Serum triglycerides (mg/dl) Day 0 [1]: 91.6 ± 7.9 mg/dL
- Serum triglycerides (mg/dl) Day 6 [1]: 37.2 ± 2.1 mg/dL
- % Change Vs control (Table 5, oral): −60.2 ± 3.9%
- % Change Day 6 vs Day 0 [1]: −58.0 ± 4.2%

Molecule: (S) 2-Ethoxy-3-(4-{2-[2-methyl-5-(4-methylthiophenyl)-pyrrol-1-yl]-ethoxy}-phenyl)-propionic acid Meglumine salt [Maglumine salt of Formula (I)]
- Serum triglycerides (mg/dl) Day 0 (Table 7, po once daily 6 days): 110.6 ± 9.1 mg/dL
- Serum triglycerides (mg/dl) Day 6 (Table 7, po once daily 6 days): 32.4 ± 1.5 mg/dL
- % Change Vs control (Table 7, po): −66.5 ± 2.5%
- % Change Day 6 vs Day 0 (Table 7, po once daily 6 days): −70.0 ± 2.2%

Molecule: (S) 2-Ethoxy-3-(4-{2-[2-methyl-5-(4-methylthiophenyl)-pyrrol-1-yl]-ethoxy}-phenyl)-propionic acid Tromethamine salt [Tromethamine salt of Formula (I)]
- Serum triglycerides (mg/dl) Day 0 [1]: 91.2 ± 7.8 mg/dL
- Serum triglycerides (mg/dl) Day 6 [1]: 47.9 ± 4.9 mg/dL
- % Change Vs control (Table 5, oral): −46.9 ± 8.5%
- % Change Day 6 vs Day 0 [1]: −43.9 ± 9.0%

Molecule: (S) 2-Ethoxy-3-(4-{2-[2-methyl-5-(4-methylthiophenyl)-pyrrol-1-yl]-ethoxy}-phenyl)-propionic acid Zinc Salt [Zinc Salt of Formula (I)]
- Serum triglycerides (mg/dl) Day 0 [2]: 119.1 ± 7.6 mg/dL
- Serum triglycerides (mg/dl) Day 6 [2]: 68.6 ± 7.5 mg/dL
- % Change Vs control (Table 3, oral): −42.0 ± 4.2%
- % Change Day 6 vs Day 0 [2]: −42.7 ± 4.2%

Molecule: (S) 2-Ethoxy-3-(4-{2-[2-methyl-5-(4-methylthiophenyl)-pyrrol-1-yl]-ethoxy}-phenyl)-propionic acid benzylamine salt [Benzylamine salt of Formula (I)]
- Serum triglycerides (mg/dl) Day 0 [1]: 91.1 ± 10.8 mg/dL
- Serum triglycerides (mg/dl) Day 6 [1]: 36.5 ± 4.0 mg/dL
- % Change Vs control (Table 5, oral): −60.2 ± 5.8%
- % Change Day 6 vs Day 0 [1]: −57.9 ± 6.2%

Molecule: (S) 2-Ethoxy-3-(4-{2-[2-methyl-5-(4-methylthiophenyl)-pyrrol-1-yl]-ethoxy}-phenyl)-propionic acid piperazine salt [Piperazine salt of Formula (I)]
- Serum triglycerides (mg/dl) Day 0 [1]: 91.0 ± 6.5 mg/dL
- Serum triglycerides (mg/dl) Day 6 [1]: 44.1 ± 1.9 mg/dL
- % Change Vs control (Table 5, oral): −52.8 ± 3.7%
- % Change Day 6 vs Day 0 [1]: −50.2 ± 4.0%
